Experimental data taken from PubChem BioAssay AID449750 (Broad Institute, 2010).
Calls of active or inactive are those of the source. The rule behind the calls is not given here.

Assay: non-covalent RecA intein splicing inhibitors, dose response, biochemical, cell-free, fluorescence, secondary screen (AID 449750)

## COc1ccc(OC)c(N2C(=O)C(Cl)=C(N3CCCCC3)C2=O)c1
  AC50: > 38 µM (inactive)

## COc1cc(C(c2c(C)[nH][nH]c2=O)c2c(C)[nH][nH]c2=O)cc([N+](=O)[O-])c1O
  AC50: 10.7 µM

## Cc1[nH]nc2c1C(c1cn[nH]c1-c1ccc(F)cc1)C(C#N)=C(N)O2 (stereo not drawn)
  AC50: > 38 µM (inactive)

## O=C(CSc1nc2ccccc2nc1SCC(=O)N1CCOCC1)N1CCOCC1
  AC50: > 38 µM (inactive)

## O=C(CCl)Nc1ccccc1C(=O)Nc1ccc2c(c1)OCO2
  AC50: 10.5 µM

## Cc1[nH]n(-c2ccccc2)c(=O)c1/C=C1\C=NN=C1c1ccccc1
  AC50: 17 µM

## CCCCNC1C(CC)C(CCC)C(C#N)(C#N)C1(C#N)C#N (stereo not drawn)
  AC50: > 38 µM (inactive)

## CCN(CC)C(=O)CSc1nnc2nnc3cc(Cl)ccc3n12
  AC50: > 38 µM (inactive)

## COc1cc(C2(c3ccc(O)c(OC)c3)C(=O)Nc3c(Br)cc(Br)cc32)ccc1O
  AC50: 21.5 µM

## COc1ccc(C2C(O)C(c3c[nH]c4ccccc34)=NN2C(=O)CCl)cc1 (stereo not drawn)
  AC50: 1.22 µM

## CC(C)(C)c1ccc(/C=C(\c2nc3ccccc3[nH]2)S(=O)(=O)c2ccccc2)cc1
  AC50: 39.1 µM

## COC(=O)c1ccccc1S(=O)(=O)N1CCC(NC(=O)c2ccccc2)CC1
  AC50: > 38 µM (inactive)

## C[C@@H]1CC=C[C@H]2[C@H]1C(=O)N(Cc1ccccc1)[C@H]2c1ccc(F)c(Br)c1
  AC50: 17.9 µM

## CC(C)C(=O)N1CCN(c2nc(-c3ccccc3)c3c(c2C#N)CCCC3)CC1
  AC50: 9.83 µM

## Cc1[nH]c2ccccc2c1C(C#N)(C#N)C1C(=O)c2ccccc2C1=O
  AC50: 2.58 µM

## CCCCn1[nH]c(-c2ccccc2)cc1=O
  AC50: 8.57 µM

## CC1OC(Nc2cccc3ccccc23)C(O)C(O)C1O (stereo not drawn)
  AC50: > 38 µM (inactive)

## Nc1ccc2nc(Cc3ccccc3)[nH]c2c1
  AC50: > 38 µM (inactive)

## CC1CCc2c(c3ccccc3n2C(=O)CCl)C1 (stereo not drawn)
  AC50: 6.54 µM

## Cc1[nH][nH]c(=O)c1C(c1cc([N+](=O)[O-])ccc1O)c1c(C)[nH][nH]c1=O
  AC50: 14.6 µM

## Cc1cc2[nH]ncc2cc1NC(=S)NC(=O)c1ccccc1
  AC50: > 38 µM (inactive)

## COc1cc(C2(c3ccc(O)c(OC)c3)C(=O)Nc3c(C)cc(Br)cc32)ccc1O
  AC50: 9.32 µM

## CC(c1ccc(O)cc1)(c1ccc(O)cc1)c1ccc(CCBr)cc1
  AC50: 11.8 µM

## CN(N)C(=S)Nc1ccc(Cl)cc1
  AC50: > 38 µM (inactive)

## CC(C)(C)c1[nH]nc2c1C(Cc1ccccc1)C(C#N)=C(N)O2 (stereo not drawn)
  AC50: > 38 µM (inactive)

## CCOc1c(Br)cc(/C=C2\C(=O)N(CCC#N)N=C2C)cc1OC
  AC50: 11.1 µM

## O=C1C(Cl)=C(NCC2CCCO2)C(=O)N1c1ccccc1 (stereo not drawn)
  AC50: > 38 µM (inactive)

## CCOc1cc(/C=C2\C(=O)N(CCC#N)N=C2C)ccc1OCC(N)=O
  AC50: 12.6 µM

## Cc1[nH]n(-c2ccccc2)c(=O)c1C(c1ccccc1[N+](=O)[O-])C(C#N)C#N (stereo not drawn)
  AC50: 9.48 µM

## Cc1[nH]nc2c1C(c1cccs1)C(C#N)=C(N)O2 (stereo not drawn)
  AC50: > 38 µM (inactive)

## CCOc1ccc(Cl)cc1C(c1c(C)[nH][nH]c1=O)c1c(C)[nH][nH]c1=O
  AC50: 12 µM

## O=C(c1cc(F)c(F)cc1Cl)N1CCN(c2ccc([N+](=O)[O-])c3ncccc23)CC1
  AC50: > 38 µM (inactive)

## COC(CN(C(=O)CCl)C(C(=O)NC1CCCC(C)C1C)c1ccc(C)cc1)OC (stereo not drawn)
  AC50: 10.9 µM

## COCc1[nH]nc2c1C(c1ccccc1F)C(C#N)=C(N)O2 (stereo not drawn)
  AC50: > 38 µM (inactive)

## CCCCCCCCCCOC(=O)Cn1c(COc2ccccc2)[n+](C)c2ccccc21
  AC50: 7.97 µM

## CC(=O)Oc1c(Br)cc(N(C(C)=O)S(=O)(=O)c2ccccc2)c2ccccc12
  AC50: 8.88 µM

## Nc1cc(N)c(OCC(F)(F)F)cc1OCC(F)(F)F
  AC50: 9.65 µM

## CC(C)(C)Nc1nc(Cl)nc(N(C#N)CN2C(=O)c3ccccc3S2(=O)=O)n1
  AC50: > 38 µM (inactive)

## CCOc1ccccc1CNc1ccc(O)cc1
  AC50: 37.6 µM

## CCOc1cc(C(c2c(C)[nH][nH]c2=O)c2c(C)[nH][nH]c2=O)ccc1O
  AC50: 5.54 µM

## COc1ccc(C(=O)/C(=C/c2cccs2)c2nc3ccccc3o2)cc1
  AC50: > 38 µM (inactive)

## COC(=O)CCSc1cc(NCCOC(C)=O)c([N+](=O)[O-])c2nonc12
  AC50: > 38 µM (inactive)

## CC1=NNC(=O)C1C(c1ccc(F)cc1)C(C#N)C#N (stereo not drawn)
  AC50: > 38 µM (inactive)

## O=C1/C(=C/Nc2cccc([N+](=O)[O-])c2)CCc2ccccc21
  AC50: > 38 µM (inactive)

## COC(=O)C[C@]1(C(=O)OC)CN(C#N)N(c2ccc(Cl)cc2)C12c1ccccc1-c1ccccc12
  AC50: 14.3 µM

## Cc1cc(C(=O)c2ccccc2)c(NC(=O)CCl)s1
  AC50: 7.09 µM

## CC1(S(=O)(=O)O)CC(=O)c2ccccc2C1=O (stereo not drawn)
  AC50: 6.36 µM

## CC1=NN(c2ccc(Cl)c(C(=O)O)c2)C(=O)C1
  AC50: 3.21 µM

## O=C(/C=C/c1ccc(O)cc1)c1ccc(NC2=C(N3CCCCC3)C(=O)c3ccccc3C2=O)cc1
  AC50: 2.06 µM

## COc1cc(/C=C2/C(=O)N(c3cccc(Br)c3)N=C2C)cc(OC)c1O
  AC50: 9.46 µM

## Cn1ncnc2c(=O)n(C)c(=O)nc1-2
  AC50: 0.0837 µM

## O=C(NCc1cccnc1)/C(=C/c1ccc(-c2ccc(Cl)cc2)o1)S(=O)(=O)c1ccccc1
  AC50: 32.4 µM

## CC(C)c1nnc(NC(=O)c2nc(S(=O)(=O)Cc3ccccc3)ncc2Cl)s1
  AC50: 15 µM
